# Laboratory results taken from article PMC8640094, “Diaportones A–C: Three New Metabolites From Endophytic Fungus Diaporthe foeniculina BZM-15” (Frontiers in Chemistry, 2021).
# “And” between values parts separate entries of the source, which are not always exact repeats. Equal entries are not always repeated.
# Key:
# SF-268 (CNS cancer) = assay: MTT cytotoxicity assay, SF-268 cells; assay type: cell-based, human; conditions: for cell inhibition: SF268 cells, listed as Comp.5
# Outline: (§1)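 Cells seeded at 5 × 10^4 cells/ml, grown 24 h at 37 °C/5% CO2, then exposed to compounds for 72 h. Viability by MTT, formazan dissolved in DMSO, absorbance at 490 nm; IC50 derived from OD.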
# MCF-7 (breast cancer) = assay: MTT cytotoxicity assay, MCF-7 cells; assay type: cell-based, human; conditions: for cell inhibition: listed as Comp.5
# Outline: (§2)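 Cells seeded at 5 × 10^4 cells/ml, grown 24 h at 37 °C, 5% CO2, then exposed to compounds for 72 h. Viability by MTT, formazan dissolved in DMSO and OD read at 490 nm; IC50 calculated from OD.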
# HepG2 (hepatoma cancer) = assay: MTT cytotoxicity assay, HepG2 cells; assay type: cell-based, human; conditions: for cell inhibition: listed as Comp.5
# Outline: as §1
# normal cell line LX-2 = assay: MTT cytotoxicity assay, normal cell line LX-2; assay type: cell-based; conditions: for cell inhibition: listed as Comp.5
# Outline: as §2
# [1] = LX-2, c 1.00 μM, three replicates
# [2] = LX-2, c 2.00 μM, three replicates
# [3] = LX-2, c 4.00 μM, three replicates
# [4] = LX-2, c 8.00 μM, three replicates
# [5] = LX-2, c 16.00 μM, three replicates
# [6] = LX-2, c 32.00 μM, three replicates
# [7] = LX-2, c 64.00 μM, three replicates
# [8] = LX-2, c 128.00 μM, three replicates
compound,measurement,setting,value
"CC(C)C12CC1C(C)(O)CC2=O (centres unmarked) [compound 5, diaportone C]",inhibition at 1 µM,"SF-268 (CNS cancer); Homo sapiens, SF-268, SF268 cells, c 1.00 μM, triplicate values, read-out: cell inhibition",6.47%
same,inhibition at 2 µM,"SF-268 (CNS cancer); Homo sapiens, SF-268, SF268 cells, c 2.00 μM, triplicate values, read-out: cell inhibition",15.7%
same,inhibition at 4 µM,"SF-268 (CNS cancer); Homo sapiens, SF-268, SF268 cells, c 4.00 μM, triplicate values, read-out: cell inhibition",22.9%
same,inhibition at 8 µM,"SF-268 (CNS cancer); Homo sapiens, SF-268, SF268 cells, c 8.00 μM, triplicate values, read-out: cell inhibition",22.1%
same,inhibition at 16 µM,"SF-268 (CNS cancer); Homo sapiens, SF-268, SF268 cells, c 16.00 μM, triplicate values, read-out: cell inhibition",27.1%
same,inhibition at 32 µM,"SF-268 (CNS cancer); Homo sapiens, SF-268, SF268 cells, c 32.00 μM, triplicate values, read-out: cell inhibition",31.9%
same,inhibition at 64 µM,"SF-268 (CNS cancer); Homo sapiens, SF-268, SF268 cells, c 64.00 μM, triplicate values, read-out: cell inhibition",67.2%
same,inhibition at 128 µM,"SF-268 (CNS cancer); Homo sapiens, SF-268, SF268 cells, c 128.00 μM, triplicate values, read-out: cell inhibition",72.8%
same,IC50,"SF-268 (CNS cancer); Homo sapiens, SF-268, MTT, 72 h, mean ± SD (n = 3), read-out: IC50 SF268",> 40 µM
same,cell inhibition,"SF-268 (CNS cancer); c 1.00 μM, triplicate values",6.8% and 6.81%
same,cell inhibition,"SF-268 (CNS cancer); c 2.00 μM, triplicate values",13.52% and 13.37%
same,cell inhibition,"SF-268 (CNS cancer); c 4.00 μM, triplicate values",23.4% and 24.41%
same,cell inhibition,"SF-268 (CNS cancer); c 8.00 μM, triplicate values",23.23% and 26.17%
same,cell inhibition,"SF-268 (CNS cancer); c 16.00 μM, triplicate values",25.97% and 27.9%
same,cell inhibition,"SF-268 (CNS cancer); c 32.00 μM, triplicate values",33.15% and 30.82%
same,cell inhibition,"SF-268 (CNS cancer); c 64.00 μM, triplicate values",67.13% and 67.17%
same,cell inhibition,"SF-268 (CNS cancer); c 128.00 μM, triplicate values",70.54% and 72.29%
same,inhibition at 1 µM,"MCF-7 (breast cancer); Homo sapiens, MCF7, MCF-7, c 1.00 μM, three replicates, read-out: cell inhibition",8.13%
same,inhibition at 2 µM,"MCF-7 (breast cancer); Homo sapiens, MCF7, MCF-7, c 2.00 μM, three replicates, read-out: cell inhibition",15.1%
same,inhibition at 4 µM,"MCF-7 (breast cancer); Homo sapiens, MCF7, MCF-7, c 4.00 μM, three replicates, read-out: cell inhibition",21.1%
same,inhibition at 8 µM,"MCF-7 (breast cancer); Homo sapiens, MCF7, MCF-7, c 8.00 μM, three replicates, read-out: cell inhibition",28.2%
same,inhibition at 16 µM,"MCF-7 (breast cancer); Homo sapiens, MCF7, MCF-7, c 16.00 μM, three replicates, read-out: cell inhibition",33.4%
same,inhibition at 32 µM,"MCF-7 (breast cancer); Homo sapiens, MCF7, MCF-7, c 32.00 μM, three replicates, read-out: cell inhibition",41.7%
same,inhibition at 64 µM,"MCF-7 (breast cancer); Homo sapiens, MCF7, MCF-7, c 64.00 μM, three replicates, read-out: cell inhibition",54.1%
same,inhibition at 128 µM,"MCF-7 (breast cancer); Homo sapiens, MCF7, MCF-7, c 128.00 μM, three replicates, read-out: cell inhibition",70.1%
same,IC50,"MCF-7 (breast cancer); Homo sapiens, MCF7, MTT, 72 h, mean ± SD (n = 3)",> 40 µM
same,cell inhibition,"MCF-7 (breast cancer); MCF-7, c 1.00 μM, three replicates",8.16% and 9.09%
same,cell inhibition,"MCF-7 (breast cancer); MCF-7, c 2.00 μM, three replicates",16.13% and 15.25%
same,cell inhibition,"MCF-7 (breast cancer); MCF-7, c 4.00 μM, three replicates",22.04% and 21.31%
same,cell inhibition,"MCF-7 (breast cancer); MCF-7, c 8.00 μM, three replicates",28.45% and 29.1%
same,cell inhibition,"MCF-7 (breast cancer); MCF-7, c 16.00 μM, three replicates",33.57% and 33.06%
same,cell inhibition,"MCF-7 (breast cancer); MCF-7, c 32.00 μM, three replicates",42.15% and 41.31%
same,cell inhibition,"MCF-7 (breast cancer); MCF-7, c 64.00 μM, three replicates",53.35% and 53.16%
same,cell inhibition,"MCF-7 (breast cancer); MCF-7, c 128.00 μM, three replicates",71.36% and 73.18%
same,cell inhibition,"HepG2 (hepatoma cancer); HepG2, c 1.00 μM, three replicates",3.46% and 5.11%
same,cell inhibition,"HepG2 (hepatoma cancer); HepG2, c 2.00 μM, three replicates",7.29% and 7.31%
same,cell inhibition,"HepG2 (hepatoma cancer); HepG2, c 4.00 μM, three replicates",9.34% and 11.19%
same,cell inhibition,"HepG2 (hepatoma cancer); HepG2, c 8.00 μM, three replicates",16.9% and 15.77%
same,cell inhibition,"HepG2 (hepatoma cancer); HepG2, c 16.00 μM, three replicates",25.3% and 27.11%
same,cell inhibition,"HepG2 (hepatoma cancer); HepG2, c 32.00 μM, three replicates",44.75% and 45.2%
same,cell inhibition,"HepG2 (hepatoma cancer); HepG2, c 64.00 μM, three replicates",77.47% and 75.51%
same,cell inhibition,"HepG2 (hepatoma cancer); HepG2, c 128.00 μM, three replicates",83.13% and 82.98%
same,inhibition at 1 µM,"HepG2 (hepatoma cancer); Homo sapiens, HepG2, HepG2, c 1.00 μM, three replicates, read-out: cell inhibition",3.33%
same,inhibition at 2 µM,"HepG2 (hepatoma cancer); Homo sapiens, HepG2, HepG2, c 2.00 μM, three replicates, read-out: cell inhibition",7.36%
same,inhibition at 4 µM,"HepG2 (hepatoma cancer); Homo sapiens, HepG2, HepG2, c 4.00 μM, three replicates, read-out: cell inhibition",9.89%
same,inhibition at 8 µM,"HepG2 (hepatoma cancer); Homo sapiens, HepG2, HepG2, c 8.00 μM, three replicates, read-out: cell inhibition",16.4%
same,inhibition at 16 µM,"HepG2 (hepatoma cancer); Homo sapiens, HepG2, HepG2, c 16.00 μM, three replicates, read-out: cell inhibition",27.6%
same,inhibition at 32 µM,"HepG2 (hepatoma cancer); Homo sapiens, HepG2, HepG2, c 32.00 μM, three replicates, read-out: cell inhibition",46.2%
same,inhibition at 64 µM,"HepG2 (hepatoma cancer); Homo sapiens, HepG2, HepG2, c 64.00 μM, three replicates, read-out: cell inhibition",77.2%
same,inhibition at 128 µM,"HepG2 (hepatoma cancer); Homo sapiens, HepG2, HepG2, c 128.00 μM, three replicates, read-out: cell inhibition",81.1%
same,IC50,"HepG2 (hepatoma cancer); Homo sapiens, HepG2, MTT, 72 h, mean ± SD (n = 3)",> 40 µM
same,inhibition at 1 µM,normal cell line LX-2; [1],11.1%
same,cell inhibition,normal cell line LX-2; [1],11.45% and 12.45%
same,inhibition at 2 µM,normal cell line LX-2; [2],13.5%
same,cell inhibition,normal cell line LX-2; [2],13.52% and 12.56%
same,inhibition at 4 µM,normal cell line LX-2; [3],23.6%
same,cell inhibition,normal cell line LX-2; [3],24.13% and 24.41%
same,inhibition at 8 µM,normal cell line LX-2; [4],30.1%
same,cell inhibition,normal cell line LX-2; [4],32.44% and 30.6%
same,inhibition at 16 µM,normal cell line LX-2; [5],31.7%
same,cell inhibition,normal cell line LX-2; [5],33.08% and 32.3%
same,inhibition at 32 µM,normal cell line LX-2; [6],46.6%
same,cell inhibition,normal cell line LX-2; [6],43.56% and 46.07%
same,inhibition at 64 µM,normal cell line LX-2; [7],70.3%
same,cell inhibition,normal cell line LX-2; [7],71.68% and 70.2%
same,inhibition at 128 µM,normal cell line LX-2; [8],89.2%
same,cell inhibition,normal cell line LX-2; [8],89.22% and 90.45%
same,IC50,"normal cell line LX-2; MTT, 72 h, mean ± SD (n = 3)",> 40 µM
